The values below come from PMC7229617, “N-alkylisatin-based microtubule destabilizers bind to the colchicine site on tubulin and retain efficacy in drug resistant acute lymphoblastic leukemia cell lines with less in vitro neurotoxicity” (Cancer Cell International, 2020).

Molecules are shown by their SMILES.

This experiment relates to T1, tubulin.
T1 construct: gene TUBA1B; pure tubulin, alpha-beta heterodimer (colchicine site at alpha/beta interface); mixture of brain isotypes
The experiment in a line: fluorescence competition (displacement of MTC), Equigra V5.[…] fit. The format is binding. Conditions: colchicine site, competitive with MTC; 10 mM phosphate pH 7, 1 mM EDTA, 1.5 mM MgCl2, 0.1 mM GTP, 25 °C; printed exponent ambiguous (10^5 or 10^4), unreliable.

Regarding `O=C1C(=O)N(Cc2cccc3ccccc23)c2c(Br)cc(Br)cc21` [N1M-isatin, 5,7-dibromo-N-(naphthalene-1-ylmethyl)isatin], the “Binding affinity (M^-1) ± SEM^a” value is 1.4 ± 0.2 × 10^5(× 10^4).
